Patent US12552770B2, “Compounds for treating respiratory disease” (TMEM16A Limited, priority 2020, dated 2026)

Target: T1, human TMEM16A (TMEM16Aabc variant) (Homo sapiens, UniProt Q5XXA6, DEL476-501)
T1 sequence (Q5XXA6 with tags, fused parts or gaps isoform Q5XXA6-5 DEL539-564): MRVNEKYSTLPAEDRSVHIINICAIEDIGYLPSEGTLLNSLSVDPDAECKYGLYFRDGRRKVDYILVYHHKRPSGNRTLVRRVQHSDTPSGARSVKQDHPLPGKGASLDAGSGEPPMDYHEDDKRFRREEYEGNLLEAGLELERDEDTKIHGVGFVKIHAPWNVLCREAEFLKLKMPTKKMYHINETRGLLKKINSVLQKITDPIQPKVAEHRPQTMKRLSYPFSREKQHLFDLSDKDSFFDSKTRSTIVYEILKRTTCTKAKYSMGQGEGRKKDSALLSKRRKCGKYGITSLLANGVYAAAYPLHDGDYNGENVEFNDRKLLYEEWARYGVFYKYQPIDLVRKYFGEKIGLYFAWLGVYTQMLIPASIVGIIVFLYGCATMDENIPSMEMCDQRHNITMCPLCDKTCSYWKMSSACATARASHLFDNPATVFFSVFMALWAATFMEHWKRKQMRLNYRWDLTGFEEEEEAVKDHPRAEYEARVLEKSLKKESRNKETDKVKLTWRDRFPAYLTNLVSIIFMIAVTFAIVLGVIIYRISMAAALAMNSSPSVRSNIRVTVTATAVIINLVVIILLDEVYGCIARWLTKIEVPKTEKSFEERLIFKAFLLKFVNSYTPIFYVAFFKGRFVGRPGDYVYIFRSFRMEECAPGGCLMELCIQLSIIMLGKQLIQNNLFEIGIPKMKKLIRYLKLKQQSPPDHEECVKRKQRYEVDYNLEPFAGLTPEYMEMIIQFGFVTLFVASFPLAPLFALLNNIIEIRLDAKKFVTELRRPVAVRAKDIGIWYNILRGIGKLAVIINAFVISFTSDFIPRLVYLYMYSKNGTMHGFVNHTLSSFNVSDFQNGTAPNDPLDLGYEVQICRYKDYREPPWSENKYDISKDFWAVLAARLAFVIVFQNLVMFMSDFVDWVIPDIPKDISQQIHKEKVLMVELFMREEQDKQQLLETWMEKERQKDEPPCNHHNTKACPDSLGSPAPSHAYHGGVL
Test: Automated whole-cell patch clamp (Qpatch) TMEM16A potentiator assay in recombinant cells
Format: cell-based
Settings: FRT cells stably expressing human TMEM16A, intracellular calcium at EC20; for % Potentiation @ 3.33 μM Avg: 3.33 μM solution of test compound, percentage increase of baseline TMEM16A current, peak current at +70 mV; for EC50: calculated from cumulative concentration response curve, whole-cell patch clamp
Protocol: Automated Whole-Cell Patch Clamp Assay to Detect TMEM16A Activity in Recombinant Cells
Cell Culture and Preparation
Fisher rat thyroid (FRT) cells stably expressing human TMEM16A (TMEM16Aabc variant; Dr Luis Galietta, Insituto Giannina, Italy) were cultured in T-75 flasks in Hams F-12 media with Coon's modification (Sigma) supplemented with 10% (v/v) foetal bovine serum, penicillin-streptomycin (10,000 U/mL/10000 μg/mL), G-418 (750 μg/mL), L-glutamine (2 mM) and sodium bicarbonate solution (7.5% v/v). At ˜90% confluence cells were harvested for experiments by detachment with a 2:1 (v/v) mixture of Detachin (BMS Biotechnology) and 0.25% (w/v) trypsin-EDTA. Cells were diluted to a density of 3.5-4.5×10^6 cells/mL with media consisting of CHO-S-SFM II (Sigma), 25 mM HEPES (Sigma) and Soy bean trypsin inhibitor (Sigma).
Whole-Cell Patch Clamp Recording
FRT-TMEM16A cells were whole-cell patch clamped using an automated planar patch clamp system (Qpatch, Sophion). Briefly, once high resistance (GOhm) seals were established between the cells and the planar recording array the patch was ruptured using suction pulses to establish the whole-cell recording configuration of the patch clamp technique. The assay employed the following solutions (all reagents Sigma):
Intracellular solution (mM): N-methyl-D-glucamine 130, CaCl2 18.2, MgCl2 1, HEPES 10, EGTA 10, BAPTA 20, Mg-ATP 2, pH 7.25, 325 mOsm with sucrose.
Extracellular solution (mM): N-methyl-D-glucamine 130, CaCl2 2, MgCl2 1, HEPES 10, pH 7.3, 320 mOsm with sucrose.
The intracellular solution buffers intracellular calcium at levels required to give ˜20% activation of the maximal TMEM16A mediated current (EC20 for calcium ions). Cells were voltage clamped at a holding potential of −70 mV and a combined voltage step (to +70 mV)/ramp (−90 my to +90 mV) was applied at 0.05 Hz. After a period of current stabilisation test compounds, solubilised in 100% (v/v) DMSO and subsequently diluted into extracellular solution, were applied to generate a cumulative concentration response curve. Each concentration of test compound was incubated for 5 minutes before addition of the next concentration. After the final concentration was tested a supramaximal concentration of either a known active positive modulator or the TMEM16A inhibitor, CaCCinhA01 (Del La Fuente et al, 2008) was added to define the upper and lower limits of the assay.
Compound activity was quantified by measuring the increase in current upon compound addition and expressing this as a percentage increase of baseline TMEM16A current level. Percentage increases in current were determined for each concentration and the data plotted as a function of concentration using either the Qpatch software or Graphpad Prism v6.05 providing the concentration which gave 50% of its maximal effect (EC50) and maximum efficacy (percentage of baseline increase).
In FIG. 1, IBL equals baseline current, I[#1] equals the peak current during test compound concentration 1 incubation period and so on.
Peak TMEM16A current at +70 mV was plotted as a function of time over the assay period. Baseline current (IBL) was measured after a period of stabilisation. The increase in current for each compound addition was determined by taking the peak current during the incubation period and subtracting the current from the previous recording period and then expressing this as a percentage of the baseline current. For test compound concentration 1 in FIG. 1 this is:
For each additional concentration tested the increase in current was determined by subtracting the current from the previous incubation period and normalising the baseline value—for test concentration 2 in FIG. 1 this is:
The values for each test concentration were plotted as a cumulative function of concentration e.g. for test concentration two this would be the sum of the peak changes measured during concentration one plus concentration two.

Row | Structure (SMILES) | % Potentiation @ 3.33 μM Avg | EC50
1 | CC(C)(CO)c1cc(F)cc(Cc2nc3cc(C(=O)NCC4(C(F)(F)F)CC4)ccc3[nH]2)c1O [Example 32, 2-[[5-Fluoro-2-hydroxy-3-(2-hydroxy-1,1-dimethyl-ethyl)phenyl]methyl]-N-[[1-(trifluoromethyl)cyclopropyl]methyl]-1H-benzimidazole-5-carboxamide] | 56.6% | 227 nM
2 | O=C(CC12CC3CC(CC(C3)C1)C2)Nc1ccc2[nH]c(CNC(=O)OCC(F)(F)F)nc2c1 [Example 6, 2,2,2-Trifluoroethyl N-[[5-[[2-(1-adamantyl)acetyl]amino]-1H-benzimidazol-2-yl]methyl]carbamate] | 246.3% | 1250 nM
3 | O=C(CC12CC3CC(CC(C3)C1)C2)Nc1cc2nc(Cc3ccccc3)[nH]c2cn1 [Example 14, 2-(1-Adamantyl)-N-(2-benzyl-3H-imidazo[4,5-c]pyridin-6-yl)acetamide] | 59.4% | –
4 | CC(C)(CNC(=O)OC(C)(C)C)CNC(=O)c1ccc2[nH]c(Cc3ccccc3)nc2c1 [Example 19, tert-Butyl N-[3-[(2-benzyl-1H-benzimidazole-5-carbonyl)amino]-2,2-dimethyl-propyl]carbamate] | 181.6% | 936 nM
5 | CC(C)(CO)c1cc(F)c(CNC(=O)c2ccc3[nH]c(C4(C(F)(F)F)CC4)nc3c2)cc1O [Example 30, N-[[2-Fluoro-5-hydroxy-4-(2-hydroxy-1,1-dimethyl-ethyl)phenyl]methyl]-2-[1-(trifluoromethyl)cyclopropyl]-1H-benzimidazole-5-carboxamide] | 66% | –
6 | CN[C@H](c1ccccc1)c1nc2cc(NC(=O)CC3C4CC5CC(C4)CC3C5)ccc2[nH]1 (stereo partly drawn) [Example 3, 2-(2-Adamantyl)-N-[2-[(R)-methylamino(phenyl)methyl]-1H-benzimidazol-5-yl]acetamide] | 108.2% | 1640 nM
7 | O=C(CC12CC3CC(CC(C3)C1)C2)Nc1ccc2cn(Cc3ccccc3)nc2c1 [Example 16, 2-(1-Adamantyl)-N-(2-benzylindazol-6-yl)acetamide] | 137.3% | 502 nM
8 | O=C(NCC1CCCCCC1)c1ccc2oc(Cc3ccccc3O)nc2c1 [Example 10, N-(Cycloheptylmethyl)-2-[(2-hydroxyphenyl)methyl]-1,3-benzoxazole-5-carboxamide] | 67.7% | 122 nM
9 | O=C(NCC1CCCCCC1)c1ccc2cn(Cc3ccccc3O)nc2c1 [Example 13, N-(Cycloheptylmethyl)-2-[(2-hydroxyphenyl)methyl]indazole-6-carboxamide] | 96.6% | 198 nM
10 | CC(C)(O)c1cc(F)c(Cc2nc3cc(C(=O)NCCC(F)(F)F)ccc3[nH]2)cc1O [Example 31, 2-[[2-Fluoro-5-hydroxy-4-(1-hydroxy-1-methyl-ethyl)phenyl]methyl]-N-(3,3,3-trifluoropropyl)-1H-benzimidazole-5-carboxamide] | 158% | –
11 | O=C(NCC1CCCCCC1)c1ccc2[nH]c(Cc3cccc(O)c3)nc2c1 [Example 25.5, N-(Cycloheptylmethyl)-2-[(3-hydroxyphenyl)methyl]-1H-benzimidazole-5-carboxamide] | 66% | 223 nM
12 | O=C(CC12CC3CC(CC(C3)C1)C2)Nc1ccc2[nH]c(CC3CCCCO3)nc2c1 (stereo not shown) [Example 1.1, 2-(1-Adamantyl)-N-[2-(tetrahydropyran-2-ylmethyl)-1H-benzimidazol-5-yl]acetamide] | 100.5% | 1100 nM
13 | Cc1c2ccc(NC(=O)CC34CC5CC(CC(C5)C3)C4)cc2nn1Cc1ccccc1 [Example 17, 2-(1-Adamantyl)-N-(2-benzyl-3-methyl-indazol-6-yl)acetamide] | 118.3% | 918 nM
14 | CC(C)(C)c1nc2cc(NC(=O)Cc3cc(Cl)ccc3O)ccc2[nH]1 [Example 27, N-(2-tert-Butyl-1H-benzimidazol-5-yl)-2-(5-chloro-2-hydroxy-phenyl)acetamide] | 96% | 156 nM
15 | O=C(CC1C2CC3CC(C2)CC1C3)Nc1ccc2[nH]c(Cc3cc(Cl)ccc3O)nc2c1 (stereo not shown) [Example 5.2, 2-(2-Adamantyl)-N-[2-[(5-chloro-2-hydroxy-phenyl)methyl]-1H-benzimidazol-5-yl]acetamide] | 204.2% | 254 nM
16 | CC(C)(C)OC(=O)NCc1nc2cc(NC(=O)CC3C4CC5CC(C4)CC3C5)ccc2[nH]1 (stereo not shown) [Example 8, tert-Butyl N-[[5-[[2-(2-adamantyl)acetyl]amino]-1H-benzimidazol-2-yl]methyl]carbamate] | 129.2% | 282 nM
17 | O=C(NCC1CCCCCC1)c1ccc2[nH]c(Cc3cccc(F)c3O)nc2c1 [Example 25.2, N-(Cycloheptylmethyl)-2-[(3-fluoro-2-hydroxy-phenyl)methyl]-1H-benzimidazole-5-carboxamide] | 83% | 200 nM
18 | O=C(NCC1CCCCCC1)c1ccn2cc(Cc3ccccc3)nc2c1 [Example 15, 2-Benzyl-N-(cycloheptylmethyl)imidazo[1,2-a]pyridine-7-carboxamide] | 58.6% | 1060 nM
19 | O=C(CC1C2CC3CC(C2)CC1C3)Nc1ccc2[nH]c(CCc3ccccc3)nc2c1 (stereo not shown) [Example 2.1, 2-(2-Adamantyl)-N-[2-(2-phenylethyl)-1H-benzimidazol-5-yl]acetamide] | 149.1% | 808 nM
20 | COc1ccccc1Cc1nc2cc(NC(=O)CC3C4CC5CC(C4)CC3C5)ccc2[nH]1 (stereo not shown) [Example 2.3, 2-(2-Adamantyl)-N-[2-[(2-methoxyphenyl)methyl]-1H-benzimidazol-5-yl]acetamide] | 211.2% | 263 nM
